Reference: publication PMC7456776, “The utility of a differentiated preclinical liver model, HepaRG cells, in investigating delayed toxicity via inhibition of mitochondrial-replication induced by fialuridine” (Toxicology and Applied Pharmacology, 2020)
“Also recorded” adds a separate entry of the source. Read-outs that look alike come from different tables or passages of the source. Blank lines part the entries; values can stand above or below the compound they belong to.

Key:
[1] = system: HepaRG cells; assay: Seahorse XFe mitochondrial stress test (oxygen consumption, extracellular acidification); format: cell-based, human
Procedure: (§1) Briefly, following the dosing period, media was switched to unbuffered XF basal medium (175 μl, pH 7.4) supplemented with glucose (25 mM), L-glutamine (2 mM) and sodium pyruvate (1 mM) before incubating in a CO2 free incubator (37 °C). Oxygen consumption was measured by Seahorse XFe96 according to the previously described protocol ([Kamalian et al., 2018]).

[2] = system: HepaRG cells; assay: Metabolic modification assay: dual ATP and cell viability (total cellular protein) assessment, extended dosing; format: cell-based, human
Procedure: In accordance with Biopredic international guidelines, undifferentiated HepaRG cells were seeded into clear flat bottomed 96 well (9000 cells/well) or Seahorse plates (4000 cells/well). They were grown for two weeks in growth media before their differentiation over 2 further weeks in differentiation media. Cells were kept at 37 °C, 5% CO2 in a humidified environment and received fresh, appropriate media twice a week. The fully differentiated cells were then used over the following four-week period, whilst being maintained in differentiation media. All experiments were performed using cells at passage number < 20.
(§2) Differentiated HepaRG cells were treated with 0–300 μM final concentrations of FIAU (1–4 weeks). FIAU was replaced in fresh differentiation media every 3–4 days. The final concentration of DMSO was at a constant 0.5% v/v in both HepaRG and HepG2 treatments. In all experiments dosing was performed in glucose supplemented media.
This was performed as previously described ([Kamalian et al., 2018]). […] IC50 values were calculated using Prism (GraphPad, California, USA) (Table 1) and criteria applied to identify a compound as a direct mitochondrial toxin.
Each experiment was performed on three or more independent occasions (n ≥ 3). IC50 values were calculated using GraphPad Prism 7 software, and were expressed as a mean ± standard deviation (SD). For all other statistical analysis comparing the values obtained from treated cells to vehicle control an ANOVA was performed, with a Dunnett or Tukey post hoc analysis where appropriate. P values lower than 0.05 were considered as statistically significant for both tests.

[3] = system: HepaRG cells; assay: Cellular L-lactate release; format: cell-based, human; conditions: 12 μM, four-week exposure
Procedure: Following incubation with drug the media from cells was transferred to a fresh 96-well plate and L-lactate levels were measured using an L-lactate assay kit as per the manufacturer's instructions.

[4] = system: HepG2 cells; assay: Seahorse XFe mitochondrial stress test; format: cell-based, human; conditions: HepG2, 1.3–100 μM, up to 72 h
Procedure: as §1
Figure Supp 4: The effect of FIAU on mitochondrial respiratory activity of HepG2 cells. The bioenergetic parameters of HepG2 cells following exposure to FIAU (12 µM) were calculated using Seahorse respirometry at 48 h (black bar) and 72 h (grey bar). All results are presented as % of vehicle control. Key: dashed line marks vehicle control at 100 %. n=3.

[5] = system: HepG2 cells; assay: Metabolic modification assay: ATP and total cellular protein, 72 h; format: cell-based, human; conditions: for Total cellular protein, % of vehicle control: HepG2, 300 μM, 3 days
Procedure: HepG2 cells were cultured and maintained in DMEM media as described previously ([Kamalian et al., 2015]).
as §2
This was performed as previously described ([Kamalian et al., 2018]). Briefly, following the dosing period, media was switched to either “glucose” or “galactose” media for 2 h prior to measuring cellular ATP content and lactate dehydrogenase (LDH) release as a marker of cell viability, both normalised to protein content. IC50 values were calculated using Prism (GraphPad, California, USA) (Table 1) and criteria applied to identify a compound as a direct mitochondrial toxin.

[6] = system: HepaRG cells; assay: Mitochondrial DNA content by real-time PCR (MT-ND1 normalised to RNase P); format: cell-based, human
Procedure: (§3) DNA was extracted via QIAamp DNA Mini Kit (Qiagen, Crawley, UK). Relative levels of mtDNA copy number were determined by real-time pre-designed PCR Taqman detection kits designed to target the mitochondrial MT-ND1 gene and the nuclear RNase P gene, using TAQMAN GT Master Mix. PCR reactions were performed according to standard conditions for TaqMan: 95 °C for 10 min; 40 cycles at (95 °C 15 s, 60 °C 1 min). PCR assays were performed in duplicate for each DNA sample. Analysis was undertaken with mitochondrial ND-1 normalised to genomic RNase P and treated sample to the appropriate vehicle.

[7] = system: patients; design: method as in McKenzie et al., 1995; conditions: ref McKenzie et al., 1995, cited from earlier work
[8] = system: HepaRG cells; conditions: human, 12 μM
[9] = system: HepaRG cells; assay: Cellular steatosis by Oil Red O staining; format: cell-based, human; conditions: 12 μM, 4 weeks
Procedure: Following drug treatment cells were washed twice in PBS and fixed in 4% paraformaldehyde (1 h, RT). Cells were then washed twice in ddH2O and incubated in isopropanol (IPA, 60% v/v, 5 min). Oil red O working solution (3:2 in ddH2O from the stock solution of 0.33% w/v in 100% IPA) was applied to the cells for 20 min. Background staining was removed by several washes with ddH2O and a 5 min wash in 60% v/v IPA. The intracellular lipid was extracted by 100% IPA after the wells were dried. The lipid content was quantified by reading the optical density at 540 nm on a Varioskan Flash (Thermo Fisher Scientific, USA).

[10] = design: method as in Bowsher et al., 1994; conditions: healthy volunteers, 5 mg single dose; ref Bowsher et al., 1994; cited from earlier work
[11] = system: PHH spheroids; design: method as in Bell et al., 2016; conditions: 3D PHH spheroids, 7 days; ref Bell et al., 2016; cited from earlier work
[12] = system: HepG2 cells; design: method as in Colacino et al., 1994; conditions: 6 days of treatment, ref Colacino et al., 1994; cited from earlier work
[13] = system: HepG2 cells; design: method as in Colacino et al., 1994; conditions: 9 days, 30 μM, ref Colacino et al., 1994; cited from earlier work
[14] = system: mitochondrial respiratory complexes I, II, IV in permeabilised HepaRG cells; assay: In-situ mito substrate assay of individual respiratory complex activity in permeabilised cells (Seahorse); format: cell-based, human; conditions: 12 μM
Excerpt: The assessment of individual mitochondrial complex activity was preformed using the in-situ mito substrate assay in permeabilised cells using Seahorse Technology as previously described ([Ball et al., 2016]).

[15] = system: HepG2 cells; assay: Mitochondrial DNA content by real-time PCR; format: cell-based, human; conditions: HepG2, 1.3–100 μM, up to 72 h
Procedure: as §3
Figure Supp 3: Mitochondrial DNA content in HepG2 cells exposed to FIAU (48 and 72 h). MtDNA content was measured by real-time PCR. HepG2 cells were exposed to FIAU (10 and 100 µM) at 48 h (black bar) and 72 h (grey bar). All results are presented as % of vehicle control. n=3.

Mitochondrial respiration ([1]; 2 weeks, 12 μM and up to 100 μM): did not reduce mitochondrial respiration
SMILES: O=c1[nH]c(=O)n([C@@H]2O[C@H](CO)[C@@H](O)[C@H]2F)cc1I [FIAM]
Cytotoxic effects ([2]; HepaRG cells, up to 4 weeks): no cytotoxic effects
Cellular ATP content or cell viability compared to vehicle control ([2]; HepaRG, 4-week incubation period): no significant differences; also recorded: did not induce any decrease

SMILES: O=c1[nH]c(=O)n([C@@H]2O[C@H](CO)[C@@H](O)[C@@H]2F)cc1I [FIAU, fialuridine]
Extracellular L-lactate in cell supernatant [3]: no significant increase in L-lactate
Bioenergetic parameters [4]: no significant differences in bioenergetic parameters
Total cellular protein, % of vehicle control ([5]; galactose media): 40.5 ± 13.4%
Total cellular protein, % of vehicle control ([5]; glucose media): 49.0 ± 22.7%
Classification as mitotoxin ([5]; HepG2 cells, up to 3 days): cannot be classified as a mitotoxin
mtDNA content, % of vehicle control ([6]; 4 μM, week 1): 59.2 ± 26.5%
mtDNA content, % of vehicle control ([6]; 10 μM, 1 week): 23.5 ± 11.9%
mtDNA content, % of vehicle control ([6]; 10 μM, 4 weeks): 5.8 ± 3.0%
Adverse effects in clinical trial ([7]; extended trial period): five deaths from acute liver failure
Time at which toxicity became apparent ([7]; week of treatment): > 13 week
Individual mean mitochondrial area [8]: 0.19 ± 0.01 μm^2
Number of mitochondria [8]: 0.80 ± 0.20 mitochondria/μm^2 of cytosol
Accumulation of intracellular lipids (oil red O) [9]: no accumulation of intracellular lipids
Cmax [10]: 600 nM
Parameters of oxygen consumption (BR, ALR, MR, SRC, PL, CE) ([1]; 12 μM, 1 week): no significant changes
ATP-linked respiration (ALR), % of vehicle control ([1]; 12 μM, 2 weeks): 77.4 ± 21.5%
Basal respiration (BR), % of vehicle control ([1]; 12 μM, 2 weeks): 85.7 ± 28.1%
Maximal respiration (MR), % of vehicle control ([1]; 12 μM, 2 weeks): 72.0 ± 19.1%
Proton leak (PL) and coupling efficiency (CE) ([1]; 12 μM, 2 weeks): remained unchanged
Spare respiratory capacity (SRC), % of vehicle control ([1]; 12 μM, 2 weeks): 65.9 ± 15.5%
Extracellular acidification rate ([1]; over 2 weeks of treatment): no dose- or time-dependent increases
IC50 [11]: 0.7 µM
TC50 (Toxicity Concentration) [12]: 35 µM
mtDNA replication [13]: decreases
Concentration at which toxic effects were observed ([2]; HepaRG, extended dosing, 2 weeks): around 10 μM
IC50 ([2]; HepaRG, wk 3 exposure, galactose media, read-out: IC50-ATP ± S.D., Galactose): 5.7 ± 2.8 µM
IC50 ([2]; Homo sapiens, HepaRG, wk 1, galactose media, total cellular protein, read-out: IC50-viability ± S.D., Galactose): 101 ± 27 µM
IC50 ([2]; Homo sapiens, HepaRG, wk 1, glucose media, total cellular protein, read-out: IC50-viability ± S.D., Glucose): 118 ± 42 µM
IC50 ([2]; Homo sapiens, HepaRG, wk 1 exposure, galactose media, read-out: IC50-ATP ± S.D., Galactose): 103 ± 13.8 µM
IC50 ([2]; Homo sapiens, HepaRG, wk 1 exposure, glucose media, read-out: IC50-ATP ± S.D., Glucose): 112 ± 32.8 µM
IC50 ([2]; Homo sapiens, HepaRG, wk 2, galactose media, total cellular protein, read-out: IC50-viability ± S.D., Galactose): 7.3 ± 3.8 µM
IC50 ([2]; Homo sapiens, HepaRG, wk 2, glucose media, total cellular protein, read-out: IC50-viability ± S.D., Glucose): 26.1 ± 9.3 µM
IC50 ([2]; Homo sapiens, HepaRG, wk 2 exposure, glucose media, read-out: IC50-ATP ± S.D., Glucose): 16.8 ± 2.3 µM
IC50 ([2]; Homo sapiens, HepaRG, wk 3, galactose media, total cellular protein, read-out: IC50-viability ± S.D., Galactose): 15.5 ± 3.4 µM
IC50 ([2]; Homo sapiens, HepaRG, wk 3, glucose media, total cellular protein, read-out: IC50-viability ± S.D., Glucose): 14.2 ± 1.3 µM
IC50 ([2]; Homo sapiens, HepaRG, wk 3 exposure, galactose media, read-out: IC50-ATP ± S.D., Galactose): 5 µM
IC50 ([2]; Homo sapiens, HepaRG, wk 3 exposure, glucose media, read-out: IC50-ATP ± S.D., Glucose): 5.4 ± 2.3 µM
IC50 ([2]; Homo sapiens, HepaRG, wk 4, galactose media, total cellular protein, read-out: IC50-viability ± S.D., Galactose): 3.6 ± 2.8 µM
IC50 ([2]; Homo sapiens, HepaRG, wk 4, glucose media, total cellular protein, read-out: IC50-viability ± S.D., Glucose): 7.6 ± 3.3 µM
IC50 ([2]; Homo sapiens, HepaRG, wk 4 exposure, galactose media, read-out: IC50-ATP ± S.D., Galactose): 7.3 ± 0.5 µM
IC50 ([2]; Homo sapiens, HepaRG, wk 4 exposure, glucose media, read-out: IC50-ATP ± S.D., Glucose): 4.9 ± 1.5 µM
Complex I activity, % of vehicle control ([14]; 2 weeks): 26.9 ± 6.9%
Complex II activity, % of vehicle control ([14]; 2 weeks): 35.5 ± 17.7%
Complex IV activity, % of vehicle control ([14]; 2 weeks): 36.0 ± 15.9%
Complex I activity, % of vehicle control ([14]; week 1): 67.4 ± 13.5%
Complex II activity, % of vehicle control ([14]; week 1): 70.3 ± 9.8%
Mitochondrial copy number [15]: no significant differences in mitochondrial copy number
